Values joined by “and” are separate entries in the source; they are usually repeats but may differ in a detail not shown here. Identical values can stand only once.
Columns and labels:
[1] = Insulin translocation with BKC as counter ion: blood glucose levels after i.p. or rectal administration (FIG. 4, Table 9); format: in vivo, male SD rats; settings: rectal administration, rats, BKC counter ion (FIG. 4)
Description: SEQ ID NO: 36 (also called IBW-002V2) was hydrophobized via acylation of the free amino groups of the two lysine residues at the C-terminus of the penetrating peptide with a myristoyl. Acylation with myristoyl was achieved by incubating the peptide with myristoyl chloride in a molar ratio of 1:10, under basic pH conditions in the presence of appropriate solvents (benzyl benzoate and di-methyl formamide, with 1% bicarbonate). The hydrophobized peptide was then incorporated into the penetration composition, which further contained a lyophilizate of (1) insulin, (2) the counter cation Benzalkonium Chloride (BKC), and (3) phytic acid at a ratio of 1:0.5:0.5. Additional components of the penetration composition are specified in Table 8.
Twelve male SD rats, 160–190 gr, were deprived of food, 18 hours prior to the experiment. The animals were divided into groups. The preparations were administered as follows: Rats #1,2-rectal PBS 200 ul, rats #3,4-rectal 200 ul penetration composition as specified above without peptide (5 IU insulin), rat #5-i.p. 200 ul penetration composition with peptide (1 IU insulin), rats #6,7-rectal 200 ul penetration composition with peptide (5 IU insulin). Blood glucose levels were measured at various time intervals post administration, in blood samples drawn from the tip of the tail. Glucose levels were plotted against time post insulin administration (See FIG. 4).

[2] = Insulin translocation with HMIC as counter ion: blood glucose levels after i.p. or rectal administration (FIG. 3); format: in vivo, male BALB/c mice; settings: 70 ul/mouse, 0.2 IU insulin
Description: SEQ ID NO: 36 (also called IBW-002V2) and SEQ ID NO: 16 (also called IBW-001) were hydrophobized via acylation of the free amino groups of the two lysine residues at the C-terminus of the penetrating peptides with a myristoyl. Acylation with myristoyl was achieved by incubating the peptide with myristoyl chloride in a molar ratio of 1:10, under basic pH conditions in the presence of appropriate solvents (benzyl benzoate and di-methyl formamide, with 1% bicarbonate). The hydrophobized peptides were then incorporated into the penetration composition, which further contained insulin, and the counter cation 1-hexyl-3-methylimidazolium chloride (HMIC). Additional components of the penetration composition are specified in Table 7.
Eight male BALB/c mice, 9–10 weeks old, were deprived of food, 18 hours prior to the experiment. The animals were divided into 4 groups. Each preparation was administered to 2 groups of mice either i.p. (70 ul/mouse, containing 0.2 IU insulin) or rectal (70 ul/mouse, containing 0.2 IU insulin). Blood glucose levels were measured at various time intervals post administration, in blood samples drawn from the tip of the tail. Glucose levels were plotted against time post insulin administration (See FIG. 3).

[3] = Heparin translocation: clotting time after rectal administration of penetration composition; format: in vivo, male BALB/c mice; settings: for Clotting time, measured at follow times after injection: 5 min / Clotting time, measured at follow times after injection: 15 min / Clotting time, measured at follow times after injection: 30 min / Clotting time, measured at follow times after injection: 60 min / Clotting time, measured at follow times after injection: 90 min / Clotting time, measured at follow times after injection: 120 min / Clotting time, measured at follow times after injection: 150 min / Clotting time, measured at follow times after injection: 0: rectal 100 μl/mouse, heparin 10 mg/ml composition, one mouse per line; for Clotting time, measured at follow times after injection: 60 min / Clotting time, measured at follow times after injection: 90 min / Clotting time, measured at follow times after injection: 120 min / Clotting time, measured at follow times after injection: 150 min: * = clotting appeared but did not progress
Description: SEQ ID NO: 36 was hydrophobized via acylation of the free amino groups of the two lysine residues at the C-terminus of the penetrating peptide with a myristoyl. Acylation with myristoyl was achieved by incubating the peptide with myristoyl chloride in a molar ratio of 1:10, under basic pH conditions in the presence of appropriate solvents (benzyl benzoate and di-methyl formamide, with 1% bicarbonate). The hydrophobized peptide was then incorporated into the penetration composition, which further contained heparin, and the counter cation 1-butyl-3-methylimidazolium chloride (BMIC). Additional components of the penetration composition are specified in Table 5.
Four male BALB/c mice, 9–10 weeks old, were deprived of food, 18 hours prior to the experiment. The mice were anesthetized by i.p. injection of 0.05 ml of a mixture of 0.15 ml xylazine+0.85 ml of ketamin. The penetration composition was then rectally administered to the mice, 100μl/mouse, using a plastic tip covered with a lubricant. Penetration was assessed via measurement of clotting time, at different time intervals after heparin administration. Five minutes post administration the tip of the tail was cut and a 50 μl blood sample was drawn into a glass capillary. The capillary was broken at different time intervals, until clot formation was observed. This was repeated at 15, 30, 60, 90, 120 and 150 minutes post administration. The animals were subsequently sacrificed.
In similar experiments, a control peptide (SEQ ID NO:16), lacking the penetrating peptide-sequence, was similarly hydrophobized and incorporated into the penetration composition of Table 5 and then rectally administered to the mice.

| Substance | blood glucose levels [1] | blood glucose levels ([2]; i.p.) | blood glucose levels ([2]; rectal) | Clotting time, measured at follow times after injection: 5 min [3] | Clotting time, measured at follow times after injection: 15 min [3] | Clotting time, measured at follow times after injection: 30 min [3] | Clotting time, measured at follow times after injection: 60 min [3] | Clotting time, measured at follow times after injection: 90 min [3] | Clotting time, measured at follow times after injection: 120 min [3] | Clotting time, measured at follow times after injection: 150 min [3] | Clotting time, measured at follow times after injection: 0 [3] | average clotting time ([3]; rectal, heparin composition of Table 5, compared to the full conjugate of the penetrating peptide) |
| --- | --- | --- | --- | --- | --- | --- | --- | --- | --- | --- | --- | --- |
| AcMYYDITLALAGICQSARLVQQLAGGGKGGKNH2 (Ac-MYYDITLALAGICQSARLVQQLAGGGKGGK-NH2) [SEQ ID NO: 36, penetrating peptide] | dropped gradually and significantly | dropped gradually and significantly | dropped gradually and significantly | 1′ (2×) and 2′ (2×) | 1.5′ and 3′ and 1′ (2×) | 1.5′ (2×) and 2′ and 3′ | 8′* and 9′* and 2.5′ and 6′ | 9′* (2×) and 7′* and 5′ | 15′* and 7′* and 3′ and 8′* | 17′* and 9′* and 4′ and 6′ | 1.5′ (2×) and 1′ and 2.5′ | – |
| GGKGGK (Linker) [SEQ ID NO: 16, reference compound] | – | significant drop | No change | 1′ | 1′ | 2′ | 5′ | 4′ | 2′ | 3′ | 1′ | only slightly elongated |

Reference: patent US7115707B2, “Amino acid sequences capable of facilitating penetration across a biological barrier” (Chiasma, Inc., priority 2002, dated 2006)
